Data taken from PubChem BioAssay (NCI).
Where “and” joins values, the source holds several entries; their conditions need not be identical. Equal entries are not always repeated.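 All cell lines were grown in 96-well plates and treated with compound for 48 hours. Abbreviation: GI50, concentration required for 50% inhibition of growth. TGI denotes the concentration required for complete inhibition of growth.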

Legend:
Assay in all cases: DTP human tumour cell line panel, 48 h
786-0 renal = tested on: 786-0 renal
ACHN renal = tested on: ACHN renal
A549 NSCLC = tested on: A549 NSCLC
HOP-18 NSCLC = tested on: HOP-18 NSCLC
OVCAR-4 ovarian = tested on: OVCAR-4 ovarian
LXFL 529 NSCLC = tested on: LXFL 529 NSCLC
HCC-2998 colon = tested on: HCC-2998 colon
TK-10 renal = tested on: TK-10 renal
MDA-MB-435 = tested on: MDA-MB-435
BT-549 breast = tested on: BT-549 breast

CC1(C(=O)NCCN(CCNC(=O)C2(C)CC3(C)CC(C)(C2)C(=O)NC3=O)CCNC(=O)C2(C)CC3(C)CC(C)(C2)C(=O)NC3=O)CC2(C)CC(C)(C1)C(=O)NC2=O (centres undefined)
TGI (786-0 renal): > 100 µM | TGI (ACHN renal): > 100 µM | TGI (A549 NSCLC): > 100 µM | TGI (HOP-18 NSCLC): > 100 µM | TGI (OVCAR-4 ovarian): > 100 µM | TGI (LXFL 529 NSCLC): > 100 µM | TGI (HCC-2998 colon): > 100 µM

O=C(N[C@@H]1C=CCC[C@@H]1c1ccccc1)OCc1ccccc1
TGI (786-0 renal): 39.7 µM | TGI (ACHN renal): 64.7 µM | TGI (A549 NSCLC): > 69.6 µM | TGI (HOP-18 NSCLC): 46.9 µM | TGI (OVCAR-4 ovarian): 42.4 µM | TGI (LXFL 529 NSCLC): 49.8 µM | TGI (TK-10 renal): 24.6 µM | TGI (HCC-2998 colon): 49.3 µM

Cc1cccc(Cl)c1NC(N)=S
TGI (786-0 renal): 48.6 µM | TGI (ACHN renal): 82.5 µM | TGI (A549 NSCLC): > 100 µM | TGI (HOP-18 NSCLC): 98.6 µM | TGI (OVCAR-4 ovarian): > 100 µM | TGI (LXFL 529 NSCLC): > 100 µM | TGI (TK-10 renal): > 100 µM | TGI (HCC-2998 colon): > 100 µM

COc1ccc(OC)c(/C=C/C(=O)C(C)(C)C)c1
TGI (786-0 renal): 36.9 µM | TGI (ACHN renal): 39.7 µM | TGI (A549 NSCLC): 82.1 µM | TGI (HOP-18 NSCLC): 38.9 µM | TGI (OVCAR-4 ovarian): 49 µM | TGI (LXFL 529 NSCLC): 36.4 µM | TGI (TK-10 renal): 72.7 µM | TGI (HCC-2998 colon): 39.7 µM

CCCCCCCCCCCCC/C=C1\C[C@H](O)COC1=O
TGI (786-0 renal): 29.5 µM | TGI (ACHN renal): 29.4 µM | TGI (A549 NSCLC): 38.7 µM | TGI (HOP-18 NSCLC): 31.6 µM | TGI (OVCAR-4 ovarian): 32.7 µM | TGI (LXFL 529 NSCLC): 29.8 µM | TGI (TK-10 renal): 31.8 µM | TGI (HCC-2998 colon): 37.2 µM

CCOc1ccccc1NC(=O)C(=O)C(C(=O)c1ccc2ccccc2c1)C1OC(=O)c2ccccc21 (centres undefined)
TGI (786-0 renal): 21.1 µM | TGI (ACHN renal): > 100 µM | TGI (A549 NSCLC): 98.2 µM | TGI (HOP-18 NSCLC): 36.3 µM | TGI (OVCAR-4 ovarian): 24.6 µM | TGI (LXFL 529 NSCLC): 19.4 µM | TGI (TK-10 renal): 54.8 µM | TGI (HCC-2998 colon): 22.9 µM

CN(C)CCNC(=O)c1cccc2cc([N+](=O)[O-])ccc12
TGI (MDA-MB-435): 7.7 µM | GI50 (786-0 renal): 1.62 µM and 0.254 µM | TGI (786-0 renal): 8.14 µM and 3.53 µM | GI50 (ACHN renal): 0.384 µM and 0.127 µM | TGI (ACHN renal): 2.94 µM and 0.604 µM | GI50 (A549 NSCLC): 0.183 µM | TGI (A549 NSCLC): 2.22 µM | TGI (HOP-18 NSCLC): 4.4 µM | GI50 (OVCAR-4 ovarian): 2.1 µM and 0.311 µM | TGI (LXFL 529 NSCLC): 1.83 µM | GI50 (TK-10 renal): 0.816 µM and 0.155 µM | TGI (TK-10 renal): 4.74 µM and 0.591 µM | GI50 (HCC-2998 colon): 1.54 µM and 0.213 µM | TGI (HCC-2998 colon): 3.74 µM and 0.986 µM | TGI (BT-549 breast): 13.8 µM

O=C1NC2(CCCC2)/C(=N\O)C12CCCC2
TGI (786-0 renal): > 100 µM | TGI (ACHN renal): > 100 µM | TGI (A549 NSCLC): > 100 µM | TGI (HOP-18 NSCLC): > 100 µM | TGI (OVCAR-4 ovarian): > 100 µM | TGI (LXFL 529 NSCLC): > 100 µM | TGI (TK-10 renal): > 100 µM

COc1ccc2nc3ccccc3c(NCCCCCN(CCCl)CCCl)c2c1
TGI (786-0 renal): 0.137 µM | TGI (ACHN renal): 0.748 µM | TGI (A549 NSCLC): 0.675 µM | TGI (HOP-18 NSCLC): > 27.3 µM | TGI (OVCAR-4 ovarian): 0.771 µM | TGI (LXFL 529 NSCLC): 0.81 µM | TGI (TK-10 renal): 1.38 µM | TGI (HCC-2998 colon): 0.23 µM

Clc1ccccc1C1N2CCCCC2[C@@H]2c3[nH]c4ccccc4c3CCN12 (some centres undefined)
TGI (786-0 renal): 42.2 µM | TGI (ACHN renal): 45.8 µM | TGI (HOP-18 NSCLC): > 100 µM | TGI (OVCAR-4 ovarian): 44.4 µM | TGI (LXFL 529 NSCLC): > 100 µM | TGI (TK-10 renal): 60 µM | TGI (HCC-2998 colon): 36.9 µM

COC1=C(C)C(=O)C2=C(C1=O)C(CO)N1C(C#N)C3CC4C(C1C2N1CCOC41)N3C (centres undefined)
GI50 (786-0 renal): 0.00243 µM | TGI (786-0 renal): 1.31 µM and 1.55 µM | GI50 (ACHN renal): 0.00277 µM | TGI (ACHN renal): 3.54 µM and 10.6 µM | GI50 (A549 NSCLC): 0.0375 µM | TGI (A549 NSCLC): 7.84 µM and 11.1 µM and 11.8 µM | GI50 (HOP-18 NSCLC): 0.0484 µM | TGI (HOP-18 NSCLC): 0.326 µM | GI50 (OVCAR-4 ovarian): 0.128 µM and 0.0409 µM and 0.0516 µM | TGI (OVCAR-4 ovarian): 0.728 µM and 0.218 µM and 0.332 µM | GI50 (TK-10 renal): 0.247 µM and 0.0437 µM | TGI (TK-10 renal): 4.05 µM and 15.6 µM | GI50 (HCC-2998 colon): 0.00395 µM | GI50 (BT-549 breast): 0.00373 µM and 0.0232 µM and < 0.01 µM | TGI (BT-549 breast): 0.00951 µM and 0.0873 µM and < 0.0111 µM
